Measured values published in patent US4338122A, “Biocidal 2-aryl-1,3-cyclopentanedione compounds and alkali metal and ammonium salts thereof” (Union Carbide Corporation, priority 1980, dated 1982).

How the values were obtained:
Corn = test: Post-emergent herbicidal test, corn; format: in vivo; parameters: key: 1: no perceptible injury; 2: intermediate degrees of injury based upon the number and extent to which leaves were injured; 3: intermediate degrees of injury based upon the number and extent to which leaves were injured; 4: intermediate degrees of injury based upon the number and extent to which leaves were injured; 5: the plant was dead; conditions: 2500 parts per million, after ten days
Protocol: (§1) Suspensions of the test compounds were prepared by dissolving one gram of compound in 50 milliliters of acetone in which had been dissolved 0.1 gram (10 percent of the weight of compound) of an alkylphenoxyethoxyethanol surfactant, as an emulsifying or dispersing agent. The resulting solution was mixed into 160 milliliters of water to give roughly 200 milliliters of a suspension containing the compound in finely divided form. The thus prepared stock suspension contained 0.5 percent by weight of compound. The test concentrations employed in the tests described herein below were obtained by diluting the stock suspension with water. The test procedures were as follows:
(§2) Experiments were also conducted to determine the phytotoxicity of representative compositions with respect to healthy fresh plants. Solutions of the compounds were prepared as described above to provide a concentration of 2500 parts per million of the test compound. The test plants were sprayed in accordance with the procedure described above for the Mite Foliage Spray Test so as to deliver approximately 100 milliliters of test solutions to the leaves of each plant tested. The sprayed plants and controls were set aside for approximately one hour to allow the solutions to dry and were then placed in the greenhouse. After ten days the plants were visually inspected to determine the extent of foliage injury. A rating of 1 indicates no perceptible injury; 5 indicates the plant was dead and ratings of 2, 3 and 4 indicate intermediate degrees of injury based upon the number and extent to which leaves were injured.
(§3) Tests were conducted in accordance with the procedures given at pages 32 to 37 supra. The results are expressed in the same manner as used in Table I, except with respect to miticidal activity. For mite adult and mite egg comparison purposes, results are given in parts per million (ppm) required for a 50 percent kill of mites or eggs, respectively.

Cotton = test: Post-emergent herbicidal test, cotton; format: in vivo; parameters: key: 1: no perceptible injury; 2: intermediate degrees of injury based upon the number and extent to which leaves were injured; 3: intermediate degrees of injury based upon the number and extent to which leaves were injured; 4: intermediate degrees of injury based upon the number and extent to which leaves were injured; 5: the plant was dead; conditions: 2500 parts per million, after ten days
Protocol: as §1, §2, §3

Tomato = test: Post-emergent herbicidal test, tomato; format: in vivo; parameters: key: 1: no perceptible injury; 2: intermediate degrees of injury based upon the number and extent to which leaves were injured; 3: intermediate degrees of injury based upon the number and extent to which leaves were injured; 4: intermediate degrees of injury based upon the number and extent to which leaves were injured; 5: the plant was dead; conditions: 2500 parts per million, after ten days
Protocol: as §1, §2, §3

[1] = test system: Red root pigweed (Amaranthus); test: Preliminary herbicide seed germination test (pre-emergent), Amaranthus; format: in vivo, Amaranthus retroflexus; parameters: key: 5: no seedling emerged; 4: few seedlings emerged and/or very severe stunting; 3: moderate reduction in stand and/or moderate stunting; 2: very slight reduction in stand and/or slight stunting; 1: no injury; seedlings appear no different with respect to stand or growth than untreated controls; conditions: ten to twelve days after application
Protocol: as §1
(§4) The following seeds were used in this test:
Red root pigweed--Amaranthus retroflexus
(§5) Two soil-seed mixtures were prepared as follows:
(§6) Each of the above mixtures was rolled separately in 5 gallon containers for approximately one-half hour on ball mill to insure uniform mixing of seeds and soil. For each compound four 3-inch pots were filled with soil to within 11/2 inches of top of pots. To two of these pots were added 70 cc. of Mixture I. To the remaining 2 pots were added 70 cc. of Mixture II. The seed-soil mixture was tamped firmly, and the pots were removed to the green-house and watered lightly. About 2 hours after planting, 25 milliliters of the test formulation were added to one pot containing Mixture I and one pot containing Mixture II. An equal volume of a water solution containing acetone and an emulsifier in the same concentration as the herbicidal mixture but without the candidate herbicide was also added to each of the soil-seed mixtures. These pots are used as check or control units. The test compounds were formulated by diluting the stock suspension with water to obtain the desired concentration of the compound in parts per million of the final formulation. Each compound was tested at the same concentration. […] Ratings were made according to the following designations:
as §3

Soybean = test: Post-emergent herbicidal test, soybean; format: in vivo; parameters: key: 1: no perceptible injury; 2: intermediate degrees of injury based upon the number and extent to which leaves were injured; 3: intermediate degrees of injury based upon the number and extent to which leaves were injured; 4: intermediate degrees of injury based upon the number and extent to which leaves were injured; 5: the plant was dead; conditions: 2500 parts per million, after ten days
Protocol: as §1, §2, §3

Crabgrass = test: Preliminary herbicide seed germination test (pre-emergent), crabgrass; format: in vivo, Digitaria sanguinalis; parameters: key: 5: no seedling emerged; 4: few seedlings emerged and/or very severe stunting; 3: moderate reduction in stand and/or moderate stunting; 2: very slight reduction in stand and/or slight stunting; 1: no injury; seedlings appear no different with respect to stand or growth than untreated controls; conditions: ten to twelve days after application
Protocol: as §1, §4
Crabgrass--Digitaria sanguinalis
as §5, §6, §3

Perennial rye grass = test: Preliminary herbicide seed germination test (pre-emergent), rye grass; format: in vivo, Solium perenne; parameters: key: 5: no seedling emerged; 4: few seedlings emerged and/or very severe stunting; 3: moderate reduction in stand and/or moderate stunting; 2: very slight reduction in stand and/or slight stunting; 1: no injury; seedlings appear no different with respect to stand or growth than untreated controls; conditions: ten to twelve days after application
Protocol: as §1, §4
Perennial rye grass--Solium perenne
as §5, §6, §3

Row | Structure (SMILES) | Post-Emergent Herbicidal, Corn (injury rating) (Corn; Table I) | Post-Emergent Herbicidal, Corn (injury rating) (Corn; Table II) | Post-Emergent Herbicidal, Cotton (injury rating) (Cotton; Table I) | Post-Emergent Herbicidal, Cotton (injury rating) (Cotton; Table II) | Post-Emergent Herbicidal, Tomato (injury rating) (Tomato; Table I) | Post-Emergent Herbicidal, Tomato (injury rating) (Tomato; Table II) | Pre-emergent Herbicidal, Amaranthus (injury rating) ([1]; Table I) | Pre-emergent Herbicidal, Amaranthus (injury rating) ([1]; Table II) | Post-Emergent Herbicidal, Soybean (injury rating) (Soybean; Table I) | Post-Emergent Herbicidal, Soybean (injury rating) (Soybean; Table II) | Pre-emergent Herbicidal, Crabgrass (injury rating) (Crabgrass; Table I) | Pre-emergent Herbicidal, Crabgrass (injury rating) (Crabgrass; Table II) | Pre-emergent Herbicidal, Rye (injury rating) (Perennial rye grass; Table I) | Pre-emergent Herbicidal, Rye (injury rating) (Perennial rye grass; Table II)
1 | Cc1ccc(C2C(=O)C3CCCCC3C2=O)c(C)c1 (centres unmarked) [CH3 CH3 H (CH2)4, 2-(2',4'-dimethylphenyl)-4,5,6,7,8,9-hexahydro-1,3-indandione] | 2 | 2 | 2 | 2 | 2 | 2 | 5 | 5 | 5 | 1 | 5 | 5 | 5 | 5
2 | Cc1ccc(C2C(=O)CCC2=O)c(C)c1 [CH3 CH3 H H H, 2-(2',4'-dimethylphenyl)-1,3-cyclopentanedione] | 2 | 2 | 1 | 1 | 1 | 1 | 5 | 5 | 1 | 1 | 5 | 5 | 5 | 5
3 | Cc1ccc(C)c(C2C(=O)C3CCCCC3C2=O)c1 (centres unmarked) [CH3 H CH3 (CH2)4, 2-(2',5'-dimethylphenyl)-4,5,6,7,8,9-hexahydro-1,3-indandione] | 1 | 1 | 1 | 1 | 1 | 1 | 1 | 1 | 1 | 1 | 1 | 1 | 1 | 1
4 | Cc1ccc(C)c(C2C(=O)CC(C)C2=O)c1 (centres unmarked) [CH3 H CH3 CH3 H, 2-(2',5'-Dimethylphenyl)-4-methyl-1,3-cyclopentanedione] | 3 |  | 2 |  | 2 |  | 3 |  | 2 |  | 2 |  | 4 | 
5 | Cc1ccc(C)c(C2C(=O)CCC2=O)c1 [CH3 H CH3 H H] | 2 |  | 2 |  | 1 |  | 3 |  | 3 |  | 2 |  | 4 | 
6 | Cc1ccccc1C1C(=O)C2CCCCC2C1=O (centres unmarked) [CH3 H H (CH2)4, 2-(2'-Methylphenyl)-4,5,6,7,8,9-hexahydro-1,3 indandione] | 2 | 2 | 3 | 3 | 1 | 1 | 3 | 3 | 1 | 1 | 3 | 3 | 5 | 5
7 | Cc1ccccc1C1C(=O)CCC1=O [CH3 H H H H, 2-(2'-methylphenyl)-1,3-cyclopentanedione] | 3 | 3 | 3 | 3 | 2 | 2 | 1 | 1 | 1 | 1 | 2 | 2 | 5 | 5
8 | O=C1CCC(=O)C1c1ccc(Cl)cc1Cl [Cl Cl H H H, 2-(2',4'-Dichlorophenyl)-1,3-cyclopentanedione] | 1 |  | 2 |  | 1 |  | 1 |  | 1 |  | 1 |  | 1 | 
9 | O=C1CCC(=O)C1c1ccccc1Cl [Cl H H H H] | 2 |  | 2 |  | 1 |  | 1 |  | 1 |  | 3 |  | 5 | 
10 | Cc1ccccc1C1C(=O)c2ccccc2C1=O [Reference I Page 3, Compound 1, reference compound] |  | 1 |  | 1 |  | 2 |  | 2 |  | 0 |  | 2 |  | 1
11 | Cc1ccc(C)c(C2C(=O)c3ccccc3C2=O)c1 [Reference II Page 146, Compound 6, reference compound] |  | 1 |  | 1 |  | 1 |  | 1 |  | 0 |  | 1 |  | 1
12 | Cc1ccc(C2C(=O)c3ccccc3C2=O)c(C)c1 [Reference II Page 146, Compound 9, reference compound] |  | 1 |  | 1 |  | 1 |  | 3 |  | 0 |  | 3 |  | 4
